Source: PubChem BioAssay AID2401 (Southern Research Specialized Biocontainment Screening …, 2010)
Where “and” joins values, the source holds several entries; their conditions need not be identical. Equal values may be shown once.

System: S. Typhimurium GFP reporter counter-screen, fluorescence, 4 h
Assay: nmpC-GFP reporter counter-screen in S. Typhimurium, dose response, counter-screen for PhoP regulon inhibitor project, Salmonella Typhimurium, GFP fluorescence (AID 2401);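 further: S. typhimurium with Mg-insensitive nmpC-GFP reporter grown at 10 µM Mg2+; drop in reporter fluorescence reflects general culture growth inhibition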

SMILES | IC50
N=c1n(CC(=O)c2ccc(Br)s2)c2ccccc2n1Cc1ccccc1 | 40.4 µM
Oc1cccc(C=NCc2ccccc2)c1O | 144 µM
NC1CCN(c2nc3c(cc2F)c(=O)c(C(=O)O)cn3-c2ccc(F)cc2F)C1 (centres undefined) | 1.13 µM
Cc1nn(-c2ccccc2)c(N2CCCC2)c1/C=N/Nc1ccc(S(N)(=O)=O)cc1[N+](=O)[O-] | 88.7 µM
Cc1ccc(S(=O)(=O)/N=C2/C=C(Sc3ncn[nH]3)C(=O)c3ccccc32)cc1 | 32.6 µM
COc1cnc(-c2ccccn2)[nH]c1=O | 35.3 µM
Cc1cc(C(C)(C)CC(C)(C)C)ccc1OCCOCC[N+](C)(C)Cc1ccccc1 | 26.9 µM
O=[N+]([O-])c1ccc(-c2ccn[nH]2)o1 | 39.8 µM
Cc1[nH]n(-c2ccccc2)c(=O)c1/C=N/Nc1nncc(-c2ccccc2)n1 | 19.1 µM
C[C@H]1c2cccc(O)c2C(O)=C2C(=O)C3(O)C(O)=C(C(N)=O)C(=O)[C@@H](N(C)C)[C@@H]3[C@@H](O)[C@@H]21 (some centres undefined) | 3.63 µM
Nc1nonc1-n1nnc(C(=O)N/N=C/c2cc(Br)ccc2O)c1CSC1=NCCS1 | 19.3 µM
CCCCCCCNC(=O)C1(CC2CC(c3ccc(Cl)cc3)=NO2)CCNCC1 (centres undefined) | 42.5 µM
N#CC1=C(S)N(c2ccccc2)C(c2ccc(-c3ccccc3Cl)o2)NC1=O (centres undefined) | 144 µM
C=C1c2cccc(O)c2C(O)=C2C(=O)[C@]3(O)C(O)=C(C(N)=O)C(=O)[C@@H](N(C)C)[C@@H]3[C@@H](O)[C@H]12 | 0.67 µM
Cc1ccc(C(=O)N/N=C/c2cc(Br)ccc2O)cn1 | 55.7 µM
CCOc1ccc(Nc2nc(N)c3ccccc3n2)cc1 | 86.2 µM
O=C(Oc1c(CN2CCOCC2)cc(Cl)c2cccnc12)c1ccc(F)cc1 | 136 µM
Cc1cc(NC(c2cccnc2)c2ccc3cccnc3c2O)no1 (centres undefined) | 105 µM
Cc1cc(C(=O)N/N=C/c2cc(Br)cc([N+](=O)[O-])c2O)c2ccccc2n1 | 109 µM
C=CC1=C(C(=O)O)N2C(=O)[C@@H](NC(=O)/C(=N\O)c3csc(N)n3)[C@H]2SC1 (stereo in doubt) | 33.3 µM
CC[n+]1c(/C=C/C=C/c2ccc(N(C)C)cc2)sc2ccccc21 | 72.9 µM
C=CC#CC[N+]1(CC#Cc2ccccc2)CCOCC1 | 34.3 µM

SMILES | IC50
CCn1cc(C(=O)O)c(=O)c2cnc(N3CCNCC3)nc21 | 68.4 µM
COc1cccc(/C=N/Nc2ncc(C(F)(F)F)cc2Cl)c1O | 126 µM
CO[C@H]1C=CO[C@@]2(C)Oc3c(C)c(O)c4c(O)c(c(C=NN5CCN(C)CC5)c(O)c4c3C2=O)NC(=O)C(C)=CC=C[C@H](C)[C@H](O)[C@@H](C)[C@@H](O)[C@@H](C)[C@H](OC(C)=O)[C@@H]1C | 3.44 µM
Nc1nc(F)nc2c1ncn2[C@@H]1O[C@H](CO)[C@@H](O)[C@H]1O | 32.8 µM
Oc1c(CN2CCCCC2)cc(COCc2ccccc2)c2cccnc12 | 80.5 µM
O=c1[nH]c2ccccc2n2c(=S)[nH]nc12 | 37.5 µM
Nc1cccc2nc3ccccc3cc12 | 26.7 µM
O=C(Nc1nc(-c2ccccn2)cs1)c1ccc(Cl)s1 | 28.6 µM
O=C(N/N=C/c1cc(O)ccc1Br)c1cccnc1 | 25.4 µM
Fc1ccc(Nc2nc(NCc3ccco3)c3ccccc3n2)cc1 | 28.2 µM
CCn1nc(C(=O)O)c(=O)c2cc3c(cc21)OCO3 | 49 µM
CC(=O)Oc1cc2cccc(OC(C)=O)c(=O)c2c(OC(C)=O)c1OC(C)=O | 62.8 µM
Oc1ccc(N=Cc2ccc(O)c(O)c2)cc1 | 118 µM
O=C(C[n+]1cc(-c2ccc(Cl)cc2)n2c1CCC2)Nc1nc(-c2ccc(F)cc2)cs1 | 38.3 µM
CCn1cc(C(=O)O)c(=O)c2cc(F)c(N3CCNCC3)cc21 | 0.88 µM
COC1C(OC(=O)c2ccc(C)[nH]2)C(O)C(Oc2ccc3c(O)c(NC(=O)c4ccc(O)c(CC=C(C)C)c4)c(=O)oc3c2Cl)OC1(C)C (centres undefined) | 16.5 µM
Nc1ncn([C@@H]2O[C@H](CO)[C@@H](O)[C@H]2O)c(=O)n1 | 33.6 µM
CN1CCN(c2c(F)cc3c(=O)c(C(=O)O)cn4c3c2SCC4)CC1 | 8.06 µM and 8.09 µM
CCCCCCOC(=O)C[N+](C)(C)CCOC1CC2CCC1(C)C2(C)C (centres undefined) | 31.9 µM
O=C(N/N=C/c1cc(Cl)ccc1O)c1ccncc1 | 20.6 µM
CCc1ccc(NC(=O)C[n+]2cc(-c3ccc(C)cc3)n3c2CCC3)cc1 | 85.9 µM
CC(C)CCNCC(O)CON=C1c2ccccc2-c2ccccc21 (centres undefined) | 126 µM

SMILES | IC50
O=C(N[C@H](CO)[C@H](O)c1ccc([N+](=O)[O-])cc1)C(Cl)Cl | 9.59 µM
CCOC(=O)c1ccc(-c2ccc(C3Nc4ccccc4C(=O)N3O)o2)cc1 (centres undefined) | 142 µM
OCc1ccc(O)c2ncccc12 | 123 µM
CC1CCC(C(C)C)C(OC(=O)Cn2c(-c3ccc(Cl)cc3)[n+](C)c3ccccc32)C1 (centres undefined) | 82.9 µM
c1cnc2c(c1)ccc1cccnc12 | 24.5 µM
CCN(CC)CCOc1ccc2c(c1)C(=NNC(=O)c1ccccn1)c1cc(OCCN(CC)CC)ccc1-2 | 38.1 µM
C/C(=N\Nc1ncnc2sc(C)c(C)c12)c1ccccn1 | 26.4 µM
O=[N+]([O-])c1cc(O)c2ncccc2c1 | 16.8 µM
O=C(N/N=C/c1ccc([N+](=O)[O-])s1)C(O)c1ccccc1 (centres undefined) | 49 µM
O=[N+]([O-])c1ccc(CNC2CCCc3ccccc32)cc1 (centres undefined) | 97.4 µM
O=C(N/N=C/c1ccc([N+](=O)[O-])o1)c1ccc(O)cc1 | 36.8 µM
Cc1[nH]c2ccccc2c1C(=O)COC(=O)c1ccc([N+](=O)[O-])s1 | 130 µM
Cc1cccc(Nc2nc(NCc3ccco3)c3ccccc3n2)c1 | 54.6 µM
O=c1c2c(-c3ccccc3)csc2nc2c3ccccc3c(NCCN3CCOCC3)nn12 | 147 µM
Cc1ccc(-c2c[n+](CC(=O)Nc3nc(-c4ccc(F)cc4)cs3)c3n2CCC3)cc1 | 42.3 µM
CCCCCCCCCCCCCCCC[N+](C)(C)CC | 25.4 µM
COc1c(N2CCN[C@H](C)C2)c(F)cc2c(=O)c(C(=O)O)cn(C3CC3)c12 | 0.78 µM
Nc1nnc(-c2cccc(Cl)c2Cl)c(N)n1 | 60.5 µM
O=C(c1ccccc1)c1c2c(cc3sc4ccccc4[n+]13)-c1cccc3cccc-2c13 | 82.2 µM
CCN(CC)c1ccc(/C=N/Nc2nc3ccccc3[nH]2)c(O)c1 | 33.7 µM
CCCC(=O)NC(c1ccc(N(C)C)cc1)c1ccc2cccnc2c1O (centres undefined) | 107 µM
Oc1c(Cl)cc(Cl)c2cccnc12 | 10.5 µM

SMILES | IC50
OCCN1CCN(Cc2cc(Cl)c3cccnc3c2O)CC1 | 75.2 µM
CCCCCCCCCCCCCCCC[n+]1cccc2ccccc21 | 19.1 µM
Nc1nonc1C(=O)N/N=C/c1cc(Br)ccc1O | 9.03 µM
CNC[C@H](Cc1ccccc1)NC[C@@H](Cc1cccc2ccccc12)NCCc1ccc(C)cc1 | 26.2 µM
O=C(N/N=C/c1c[nH]c2ccccc12)c1cc(-c2cccc3ccccc23)n[nH]1 | 85.3 µM
COc1cccc(C2Nc3ccccc3C(=O)N2O)c1O (centres undefined) | 138 µM
C#CCOCCOCCOCCNc1nc(N2CCN(C(=O)CCCCCCCCCCNC(=O)[C@H](CCCCN)n3cc(C[C@@H](C)CC)nn3)CC2)nc(N2CCN(C(=O)CCCCCCCCCCNC(=O)[C@H](CCCN=C(N)N)n3cc(C[C@@H](C)CC)nn3)CC2)n1 | 78 µM
C=CC1=C(C(=O)O)N2C(=O)[C@@H](NC(=O)/C(=N/OCC(=O)O)c3csc(N)n3)[C@H]2SC1 | 30.3 µM
O=C(C[n+]1cc(-c2ccc(Cl)cc2)n2c1CCC2)Nc1nc(-c2ccccc2)cs1 | 84 µM
C=CCc1cccc(C2Nc3ccccc3C(=O)N2O)c1O (centres undefined) | 80.9 µM
COc1ccc(/C=N/Nc2cc(C)nc3ccccc23)cc1 | 51.7 µM
Cc1cc(C)c2ccc(N)nc2c1O | 35.7 µM
CCCCCc1ccc(OCCC[n+]2ccccc2)c(CCCCC)c1 | 70.1 µM
Cc1ccc(C)c(/C=C/C(=O)c2ccccc(=O)c2O)c1 | 38.9 µM
O=C(N/N=C\c1cccc([N+](=O)[O-])c1O)C1COc2ccccc2O1 (centres undefined) | 54.6 µM
NC1=NC[C@H](Cc2ccc(O)cc2)N1CCCCC1CCCCC1 | 51 µM
COc1ccc(C(C[N+](=O)[O-])C2(c3ccc(OC)c(OC)c3)C(=O)c3ccccc3C2=O)cc1 (centres undefined) | 23.2 µM
CCN1CCN(C(c2ccc(C(F)(F)F)cc2)c2ccc3cccnc3c2O)CC1 (centres undefined) | 39.4 µM
Cc1ccc(S(=O)(=O)Nc2cc(Cl)c(O)c3ncccc23)cc1 | 29 µM
CCCOc1ccc(C(=O)NC(=S)N2CCN(c3cc4c(cc3F)c(=O)c(C(=O)O)cn4CC)CC2)cc1 | 56.5 µM
O=C1C(SCCO)=C(SCCO)C(=O)c2ccccc21 | 68 µM
C/C(=N\Nc1nc2ccccc2[nH]1)c1ccccn1 | 22.5 µM

SMILES | IC50
C/C(=N\NC(=O)c1cc2ccccc2cc1O)c1ccccn1 | 17 µM
COc1ccc(C(C[N+](=O)[O-])c2c(-c3ccccc3)cc3ccccn23)cc1 (centres undefined) | 29.9 µM
NC1=NC[C@@H](Cc2ccc(O)cc2)N1CCCCC1CCCCC1 | 32.9 µM
C[C@H]1c2cccc(O)c2C(O)=C2C(=O)[C@]3(O)C(O)=C(C(N)=O)C(=O)[C@@H](N(C)C)[C@@H]3[C@@H](O)[C@@H]21 | 2.87 µM
COc1ccc(C(=O)Cn2nc(CNc3ccc(Br)cc3)[n+]3c2CCCCC3)cc1 | 80.8 µM
CCC(C)NC(=O)c1cn(CC)c2cc(N3CCN(C)CC3)c(F)cc2c1=O (centres undefined) | 70.6 µM
CSc1ccc2c(c1)C(N1CCN(C)CC1)Cc1ccccc1S2 (centres undefined) | 87.2 µM
NC(=NCCCCCCN=C(N)/N=C(\N)Nc1ccc(Cl)cc1)/N=C(\N)Nc1ccc(Cl)cc1 | 5.5 µM and 9.19 µM and 14.6 µM
CCCCN(CCCC)C(=O)c1cn(CC)c2cc(N3CCN(C)CC3)c(F)cc2c1=O | 21.9 µM
CN1CCN(c2cc3c(cc2F)c(=O)c(C(=O)O)cn3CCF)CC1 | 0.93 µM
Clc1cc(Br)ccc1OCCCNCc1ccccc1 | 75.6 µM
FC(F)(F)c1ccc2c(c1)N(CCCN1CCN(CCCl)CC1)c1ccccc1S2 | 110 µM
O=S1(=O)CCC(NC(=S)SCCOc2ccccc2)C1 (centres undefined) | 64.8 µM
CCCCCCNC(=O)c1cn(CC)c2cc(N3CCN(C)CC3)c(F)cc2c1=O | 38.9 µM
CCCCC(CC)CN=C(N)NC(N)=NCCCCCCN=C(N)NC(N)=NCC(CC)CCCC (centres undefined) | 5.51 µM
Nc1nc2ccccc2n1Cc1ccc(Cl)c(Cl)c1 | 76.5 µM
CCCc1nnc(NC(=O)c2cn(CC)c3cc(N4CCN(C)CC4)c(F)cc3c2=O)s1 | 117 µM
Oc1c(I)cc(Cl)c2cccnc12 | 8.56 µM
CN1CCc2c(sc(NC(=O)c3ccc([N+](=O)[O-])o3)c2C(N)=O)C1 | 47.7 µM
Oc1ccc(CN2CCN(Cc3ccccc3)CC2)c2cccnc12 | 35 µM
Cc1ccc(Cn2c(=N)n(CC(=O)c3ccc([N+](=O)[O-])cc3)c3ccccc32)cc1 | 103 µM
